From US10897901B2, “Herbicidal composition” (FMC Corporation, priority 2007, dated 2021)

How the values were obtained:
Assay type in all cases: in vivo
[1] = test system: Yellow Nutsedge (Cyperus esculentus); assay: Example 1 post-emergent turf plot test, nutsedge; settings: 0.75 lb ai/acre
Experimental: (§1) The experimental design used randomized plots with post-emergent treatment and three replications per test trial. The size of each experimental plot was 4 feet by 6 feet. The application of each test composition was performed with pressurized back-pack sprayers, calibrated to spray 200 gallons per acre. Test compositions containing sulfentrazone (DISMISS™ Turf Herbicide), quniclorac, (FACET® 75 DF herbicide) or a mixture of sulfentrazone and quinclorac in a 1:3 ratio, prepared as described above, were diluted with water to provide the appropriate test rate concentrations.
(§2) The control of weeds was evaluated in each experimental plot from 7 to 41 days after treatment (DAT) of each test rate. The results, shown as an average of the replications, were compared with results observed in untreated control plots in the same trials.

[2] = test system: Blackseed Plantain (Plantago rugelii); assay: Example 2 post-emergent turf plot test, plantain; settings: 0.75 lb ai/acre
Experimental: (§3) The experimental design used randomized plots with post-emergent treatment and three replications per test trial. The size of each experimental plot was 4 feet by 6 feet. The application of each test composition was performed with pressurized back-pack sprayers, calibrated to spray 200 gallons per acre. Test compositions containing sulfentrazone (DISMISS™ Turf Herbicide), quinclorac, (FACET® 75 DF herbicide) or a mixture of sulfentrazone and quinclorac in a one to three ratio, prepared as described above, were diluted with water to provide the appropriate test rate concentrations.
(§4) The control of weeds was evaluated in each experimental plot from 1 to 27 days after treatment (DAT) of each test rate. The results, shown as an average of the replications, were compared with results observed in untreated control plots in the same trials.

[3] = test system: White Clover (Trifolium repens); assay: Example 2 post-emergent turf plot test, clover; settings: 0.75 lb ai/acre
Experimental: as §3, §4

[4] = test system: White Clover (Trifolium repens); assay: Example 1 post-emergent turf plot test, clover; settings: 0.75 lb ai/acre
Experimental: as §1, §2

[5] = test system: Red River crabgrass (Digitaria ciliaris); assay: Example 3 post-emergence greenhouse pot test, crabgrass
Experimental: Test compositions containing sulfentrazone (DISMISS™ Turf Herbicide), quniclorac, (DRIVE® 75 DF Herbicide) or mixture of sulfentrazone and quinclorac in a three to one ratio, prepared as described above, were diluted with water to provide the appropriate test rate concentrations. A nonionic surfactant (0.25%) was added to each test solution.
The test weeds include Red River crabgrass (Digitaria ciliaris) and yellow nutsedge (Cyperus esculentusi).
For post-emergence testing, three disposable 3 inch square pots for each rate of application of each herbicide were filled with a soil, comprised of peat moss, vermiculite, bark ash, pine bark, limestone and a wetting agent, to which 8 to 10 seeds were planted. The pots were placed in a greenhouse and watered daily, thus allowing the seeds to germinate and the foliage to develop.
Pots designated for treatment were placed on a conveyor belt and the conveyor belt fed under a spray nozzle mounted about ten inches above the foliage. The spray of herbicidal solution was commenced and once stabilized; the pots were passed under the spray at a speed to receive a coverage equivalent of 30 gallons per acre. The application rates are those shown in Table 3 below for the individual herbicidal solutions and the mixture of sulfentrazone and quinclorac. The post-emergence pots were immediately placed in the green-house and not watered until 24 hours after treatment with the test solution. Thereafter they were regularly watered at ground level. The control of weeds was evaluated in each experimental test from 1 to 22 days after treatment (DAT). The results, shown as an average of the replications, were compared with results observed in untreated control pots in the same tests.
Percent control was determined by a method similar to the 0 to 100 rating system disclosed in “Research Methods in Weed Science,” 2nd ed., B. Truelove, Ed.; Southern Weed Science Society; Auburn University, Auburn, Ala., 1977.

[6] = test system: Yellow Nutsedge (Cyperus esculentus); assay: Example 2 post-emergent turf plot test, nutsedge; settings: 0.75 lb ai/acre
Experimental: as §3, §4

[7] = test system: Blackseed Plantain (Plantago rugelii); assay: Example 1 post-emergent turf plot test, plantain; settings: 0.75 lb ai/acre
Experimental: as §1, §2

Measured: Percent Control

O=C(O)c1c(Cl)ccc2cc(Cl)cnc12 [B, 3,7-dichloro-8-quinolinecarboxylic acid]
83%: [2]; 7 DAT | [6]; 7 DAT
40%: [1]; 14 DAT
10%: [1]; 21 DAT | [5]; 1-2 leaf stage, 11 days old, 0.75 lb ai/acre, 3 DAT | [5]; 1-2 leaf stage, 11 days old, 1.0 lb ai/acre, 3 DAT | [5]; 1-2 leaf stage, 11 days old, 1.0 lb ai/acre, 7 DAT | [5]; 3-4 leaf stage, 1-2 tillers, 14 days old, 1.0 lb ai/acre, 7 DAT
54%: [6]; 14 DAT
60%: [3]; 7 DAT
50%: [4]; 7 DAT | [4]; 14 DAT | [4]; 21 DAT
2%: [5]; 1-2 leaf stage, 11 days old, 1.0 lb ai/acre, 14 DAT | [5]; 1-2 leaf stage, 11 days old, 1.0 lb ai/acre, 21 DAT
5%: [5]; 1-2 leaf stage, 11 days old, 0.375 lb ai/acre, 3 DAT | [5]; 1-2 leaf stage, 11 days old, 0.375 lb ai/acre, 7 DAT | [5]; 1-2 leaf stage, 11 days old, 0.75 lb ai/acre, 7 DAT | [5]; 3-4 leaf stage, 1-2 tillers, 14 days old, 0.375 lb ai/acre, 3 DAT | [5]; 3-4 leaf stage, 1-2 tillers, 14 days old, 0.375 lb ai/acre, 7 DAT | [5]; 3-4 leaf stage, 1-2 tillers, 14 days old, 0.75 lb ai/acre, 3 DAT | [5]; 3-4 leaf stage, 1-2 tillers, 14 days old, 0.75 lb ai/acre, 7 DAT | [5]; 3-4 leaf stage, 1-2 tillers, 14 days old, 0.75 lb ai/acre, 14 DAT | [5]; 3-4 leaf stage, 1-2 tillers, 14 days old, 1.0 lb ai/acre, 3 DAT | [5]; 3-4 leaf stage, 1-2 tillers, 14 days old, 1.0 lb ai/acre, 14 DAT | [5]; 3-4 leaf stage, 1-2 tillers, 14 days old, 1.0 lb ai/acre, 21 DAT
13%: [1]; 28 DAT
63%: [4]; 28 DAT
37%: [6]; 21 DAT
82%: [3]; 21 DAT
87%: [3]; 14 DAT
100%: [1]; 7 DAT | [2]; 14 DAT | [2]; 21 DAT | [7]; 7 DAT | [7]; 14 DAT | [7]; 21 DAT | [7]; 28 DAT
0%: [5]; 1-2 leaf stage, 11 days old, 0.375 lb ai/acre, 1 DAT | [5]; 1-2 leaf stage, 11 days old, 0.375 lb ai/acre, 14 DAT | [5]; 1-2 leaf stage, 11 days old, 0.375 lb ai/acre, 21 DAT | [5]; 1-2 leaf stage, 11 days old, 0.75 lb ai/acre, 1 DAT | [5]; 1-2 leaf stage, 11 days old, 0.75 lb ai/acre, 14 DAT | [5]; 1-2 leaf stage, 11 days old, 0.75 lb ai/acre, 21 DAT | [5]; 1-2 leaf stage, 11 days old, 1.0 lb ai/acre, 1 DAT | [5]; 3-4 leaf stage, 1-2 tillers, 14 days old, 0.375 lb ai/acre, 1 DAT | [5]; 3-4 leaf stage, 1-2 tillers, 14 days old, 0.375 lb ai/acre, 14 DAT | [5]; 3-4 leaf stage, 1-2 tillers, 14 days old, 0.375 lb ai/acre, 21 DAT | [5]; 3-4 leaf stage, 1-2 tillers, 14 days old, 0.75 lb ai/acre, 1 DAT | [5]; 3-4 leaf stage, 1-2 tillers, 14 days old, 0.75 lb ai/acre, 21 DAT | [5]; 3-4 leaf stage, 1-2 tillers, 14 days old, 1.0 lb ai/acre, 1 DAT
